This test addresses T1, Peptide deformylase (Staphylococcus aureus subsp. aureus Mu50, UniProt P68825).
T1 sequence (P68825 whole entry): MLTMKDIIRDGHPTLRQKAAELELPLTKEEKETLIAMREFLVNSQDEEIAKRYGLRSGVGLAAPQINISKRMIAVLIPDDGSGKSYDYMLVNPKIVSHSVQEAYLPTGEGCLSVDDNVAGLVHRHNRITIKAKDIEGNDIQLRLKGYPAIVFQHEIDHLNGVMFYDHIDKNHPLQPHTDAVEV
Description: Inhibitory activity towards Ni-peptide deformylase of Staphylococcus aureus.

Broadly, the IC50 is the midpoint of a concentration-inhibition curve.

As for `O=C(CC1Sc2ccccc2N(CC(=O)N2CCCC2)C1=O)NO` (stereo not given), the 50% inhibitory concentration (IC50) worked out at 397 nM.

In turn, `O=C(CC1Sc2ccccc2N(Cc2ccccc2)C1=O)NO` (stereo not given) displayed an IC50 of 12 nM.

In the case of `CCCCCN1C(=O)C(CC(=O)NO)Sc2ccccc21` (stereo not given), the IC50 is under 5 nM.

On to `O=C(CC1Cc2ccccc2N(CC2CC2)C1=O)NO` (stereo not given), for which the half-inhibitory concentration (IC50) turned out to be 175 nM.

Compound `N#CCN1C(=O)C(CC(=O)NO)Sc2ccccc21` (stereo not given) gave an IC50 of 515 nM.

Compound `CN1C(=O)C(CC(=O)NO)Sc2ccccc21` (stereo not given) had a half-inhibitory concentration (IC50) of 37 nM. Against the preceding compound, the IC50 is about 14-fold lower.

`O=C(CC1Sc2ccccc2N(CC2CCC2)C1=O)NO` (stereo not given): the IC50 worked out at 41 nM.

`O=C(CC1Sc2ccccc2N(CC2CCCCO2)C1=O)NO` (stereo not given): the IC50 was 18 nM.

Consider `CC(C)CCCN1C(=O)C(CC(=O)NO)Sc2ccccc21` (stereo not given), for which the IC50 is under 5 nM.

Compound `O=C(CC1Sc2ccccc2N(CC(=O)Nc2cc(F)ccc2F)C1=O)NO` (stereo not given) registered an IC50 of 58 nM.

For `NNC(=O)CC1Sc2ccccc2NC1=O` (stereo not given), half-maximal inhibition (IC50) was put at 330 nM.

In turn, `O=C1Nc2ccccc2SC1CNO` (stereo not given) came in with an IC50 of over 2000 nM.

`O=C(CC1Sc2ccccc2N(CCC2CCCCC2)C1=O)NO` (stereo not given) displayed an IC50 of 57 nM.

Compound `CC(C)(C)C(=O)CN1C(=O)C(CC(=O)NO)Sc2ccccc21` (stereo not given) yielded an IC50 of 50 nM.

With `CC(C)CCN1C(=O)C(CC(=O)NO)Sc2ccccc21` (stereo not given), the IC50 was under 5 nM.

Regarding `COCCN1C(=O)C(CC(=O)NO)Sc2ccccc21` (stereo not given), the half-maximal inhibitory concentration (IC50) is under 5 nM.

The compound `O=C(CC1Sc2ccccc2N(CCc2ccccc2)C1=O)NO` (stereo not given) came in with an IC50 of under 5 nM.

In turn, `O=C(O)CC1Sc2ccccc2NC1=O` (stereo not given) came in with an IC50 of over 2000 nM.

Compound `O=C(CC1Sc2ccccc2NC1=O)NO` (stereo not given) yielded an IC50 of under 5 nM.

On to `O=C(CC1Sc2ccccc2N(CCC2OCCO2)C1=O)NO` (stereo not given), for which the IC50 was under 5 nM.

For `CON(C)C(=O)CC1Sc2ccccc2NC1=O` (stereo not given), the IC50 was over 2000 nM.

Consider `CONC(=O)CC1Sc2ccccc2NC1=O` (stereo not given), for which the IC50 came out at 74 nM.

As to `O=C(CC1C(=O)Nc2ccccc2S1(=O)=O)NO` (stereo not given), the IC50 was over 2000 nM.

On to `O=C(CC1Sc2ccccc2N(CC(=O)Nc2ccccn2)C1=O)NO` (stereo not given), for which the IC50 is 343 nM. This counts as sub-micromolar.

The compound `CCCCC[C@H](CC(=O)NO)C(=O)N[C@H](C(=O)N1CCC[C@H]1CO)C(C)C` [ACTINONIN] had an IC50 of under 5 nM.

Values taken from ChEMBL document CHEMBL1147628, “Identification of novel potent bicyclic peptide deformylase inhibitors” (Bioorg Med Chem Lett, 2004).
